In the NIST ThermoML archive (doi:10.1021/je400512u):
Numbers after ± are expanded uncertainties.

Legend:
[1] = 101 kPa, Liquid; for viscosity: Concentric cylinders viscometry; for speed of sound: Pulse-echo method; for mass density: Vibrating tube method
[2] = xn = mol fraction of the nth substance listed; details: 101 kPa, Liquid, x2 = 0; for viscosity: Concentric cylinders viscometry; for speed of sound: Pulse-echo method; for mass density: Vibrating tube method

| SMILES | viscosity ([1]; 298.15 K) [mPa·s] | speed of sound ([1]; 298.15 K) [m/s] | mass density ([1]; 298.15 K) [kg/m3] | viscosity ([1]; 303.15 K) [mPa·s] | speed of sound ([1]; 303.15 K) [m/s] | mass density ([1]; 303.15 K) [kg/m3] | viscosity ([1]; 308.15 K) [mPa·s] | speed of sound ([1]; 308.15 K) [m/s] | mass density ([1]; 308.15 K) [kg/m3] | viscosity ([1]; 313.15 K) [mPa·s] | speed of sound ([1]; 313.15 K) [m/s] | mass density ([1]; 313.15 K) [kg/m3] | viscosity ([1]; 318.15 K) [mPa·s] | speed of sound ([1]; 318.15 K) [m/s] | mass density ([1]; 318.15 K) [kg/m3] | viscosity ([1]; 323.15 K) [mPa·s] | speed of sound ([1]; 323.15 K) [m/s] | mass density ([1]; 323.15 K) [kg/m3] | also measured |
| --- | --- | --- | --- | --- | --- | --- | --- | --- | --- | --- | --- | --- | --- | --- | --- | --- | --- | --- | --- |
| C1COCCO1 [1,4-dioxane] | 1.212 ± 0.042 | 1345.1 ± 1.2 | 1027.99 ± 0.25 | 1.115 ± 0.039 | 1323.1 ± 1.2 | 1022.33 ± 0.25 | 1.028 ± 0.036 | 1301.3 ± 1.2 | 1016.66 ± 0.24 | 0.952 ± 0.033 | 1279.7 ± 1.2 | 1010.98 ± 0.24 | 0.883 ± 0.031 | 1258.2 ± 1.2 | 1005.28 ± 0.23 | 0.822 ± 0.029 | 1237.4 ± 1.2 | 999.58 ± 0.23 | – |
| C1COCCO1 [1,4-dioxane] + CCCCCCCO | – | – | – | – | – | – | – | – | – | – | – | – | – | – | – | – | – | – | viscosity ([2]; 298.15 K): 1.212 ± 0.042 mPa·s; speed of sound ([2]; 298.15 K): 1345.1 ± 1.2 m/s; mass density ([2]; 298.15 K): 1027.99 ± 0.25 kg/m3; viscosity ([2]; 303.15 K): 1.115 ± 0.039 mPa·s; speed of sound ([2]; 303.15 K): 1323.1 ± 1.2 m/s; mass density ([2]; 303.15 K): 1022.33 ± 0.25 kg/m3; viscosity ([2]; 308.15 K): 1.028 ± 0.036 mPa·s; speed of sound ([2]; 308.15 K): 1301.3 ± 1.2 m/s; mass density ([2]; 308.15 K): 1016.66 ± 0.24 kg/m3; viscosity ([2]; 313.15 K): 0.952 ± 0.033 mPa·s; speed of sound ([2]; 313.15 K): 1279.7 ± 1.2 m/s; mass density ([2]; 313.15 K): 1010.98 ± 0.24 kg/m3; viscosity ([2]; 318.15 K): 0.883 ± 0.031 mPa·s; speed of sound ([2]; 318.15 K): 1258.2 ± 1.2 m/s; mass density ([2]; 318.15 K): 1005.28 ± 0.23 kg/m3; viscosity ([2]; 323.15 K): 0.822 ± 0.029 mPa·s; speed of sound ([2]; 323.15 K): 1237.4 ± 1.2 m/s; mass density ([2]; 323.15 K): 999.58 ± 0.23 kg/m3 |
| CCCCCCCO [heptan-1-ol] | 5.869 ± 0.2 | 1328.3 ± 1.2 | 819.73 ± 0.23 | 4.989 ± 0.17 | 1311.3 ± 1.2 | 816.183 ± 0.23 | 4.27 ± 0.15 | 1294.5 ± 1.2 | 812.61 ± 0.23 | 3.677 ± 0.13 | 1277.7 ± 1.2 | 809.011 ± 0.23 | 3.186 ± 0.11 | 1261.1 ± 1.2 | 805.383 ± 0.24 | 2.777 ± 0.096 | 1245.1 ± 1.2 | 801.731 ± 0.24 | – |
